Measured values as given in EP4763837A1, “PHOTOCHROMIC COMPOUND, CURABLE COMPOSITION, OPTICAL ARTICLE, LENS, AND EYEGLASSES” (TOKUYAMA CORPORATION, priority 2023, dated 2025).
Several values for one entry are separate records, joined by “and”; a condition that tells them apart may be missing. Equal values may be shown once.

Assays:
[1] = Solubility of photochromic compound in polymerizable compounds; format: physicochemical; set-up: key: 1: No haze is seen when checked under transmission of light, and the sample is completely dissolved.; 2: A very thin haze is seen to the extent that it can be seen under transmission of light.; 3: A thin haze that can be seen under transmission of light is seen.; 4: A haze can be seen even without transmission of light; conditions: 35 µmol/g in radical polymerizable compound composition of Example 21, 65 to 70°C; for Dissolution for 15 min / Dissolution for 30 min / Dissolution for 45 min: stirring and ultrasonic irradiation; for Dissolution for 1 hour: head reads 60 min in Tables 8 to 14
Description: The photochromic compounds according to Examples and Comparative examples shown in Table 5 were evaluated for solubility in polymerizable compounds.
Specifically, a sample was prepared by adding each of the photochromic compounds to the composition, which consisted of a radical polymerizable compound, among the curable compositions used in Example 21.
Note that, this test was performed using "YOKAI-KUN USS-1" manufactured by NIHONSEIKI KAISHA LTD. under the following conditions: • Dissolution temperature: 65 to 70°C • Stirring condition: Stirring dial of 5. Ultrasonic irradiation condition: Irradiation interval of 3 sec.
Dissolution was checked every 15 minutes up to 1 hour later, the sample was visually checked by transmitting light through the sample, and a degree of dissolution was evaluated according to the following four evaluation criteria.
• 1: No haze is seen when checked under transmission of light, and the sample is completely dissolved. • 2: A very thin haze is seen to the extent that it can be seen under transmission of light. • 3: A thin haze that can be seen under transmission of light is seen. • 4: A haze can be seen even without transmission of light.
A shorter time required for the evaluation result to be 1 means higher solubility.

[2] = Photochromic property of photochromic laminate made by coating method; format: physicochemical; conditions: for Residual ratio / Color developing density at 23°C: laminate by coating method; for Residual ratio: A96/A0 x 100 after 96 hours accelerated degradation, xenon weather meter X25; for Color developing density at 23°C: absorbance difference after 240 seconds irradiation at the maximum absorption wavelength of the same line
From the text: First, the photochromic compound obtained in Example 1, a photoinitiator, and a polymerizable compound were mixed to obtain a curable composition.
The polymerizable compound was a combination of the following radical polymerizable monomers:
Polyethylene glycol dimethacrylate (average molecular weight: 736): 42 parts by mass • Polyethylene glycol dimethacrylate (average molecular weight: 536): 12 parts by mass • Trimethylolpropane methacrylate: 38 parts by mass γ-Methacryloyloxypropyltrimethoxysilane: 2 parts by mass Glycidyl methacrylate: 1 part by mass.
Note that, in the curable composition, the photochromic compound was added in an amount of 0.25 mmol taking a total amount of the radical polymerizable monomers as 100 g.
Phenylbis(2,4,6-trimethylbenzoyl)phosphine oxide (photoinitiator: Omnirad 819): 0.3 parts by mass Ethylene bis(oxyethylene) bis[3-(5-tert-butyl-4-hydroxy-m-tolyl) propionate] (stabilizer, Irganox 245): 1 part by mass Bis(1,2,2,6,6-pentamethyl-4-piperidyl)sebacate: 3 parts by mass Leveling agent (L-7001) manufactured by DuPont Toray Specialty Materials K.K.: 0.1 parts by mass.
Using this curable composition, a photochromic laminate was obtained by a lamination method including polymerization as follows.
First, a thiourethane plastic lens with a center thickness of 2 mm and a refractive index of 1.60 was prepared as an optical substrate. Note that, the thiourethane plastic lens had been alkaline-etched in a 10% sodium hydroxide aqueous solution at 50°C for 5 minutes in advance, and then thoroughly washed with distilled water.
A spin coater (1H-DX2, manufactured by MIKASA CO., LTD) was used to coat a surface of the above-mentioned plastic lens with a moisture-curing primer (product name: TR-SC-P, manufactured by Tokuyama Corporation) at a rotation speed of 70 rpm for 15 seconds, followed by 1000 rpm for 10 seconds. Then, about 2 g of the photochromic curable composition obtained above was spin-coated at a rotation speed of 60 rpm for 40 seconds, followed by 600 rpm for 10 to 20 seconds so as to achieve a photochromic coating layer with a thickness of 40 µm.
The lens of which surface had been coated with the photochromic curable composition (photochromic coating layer) was irradiated with light for 90 seconds in a nitrogen gas atmosphere using a metal halide lamp with an output of 200 mW/cm^2 to cure the coating. The resultant was then further heated at 110°C for 1 hour to produce a photochromic laminate with a photochromic layer.
Photochromic laminates were produced using the photochromic compounds obtained in Examples 2 to 20 in the same manner as in Example 21.
Photochromic laminates were obtained using photochromic compounds represented by Formulae (A) to (D) below in the same manner as in Example 21. [drawing 89] [drawing 90] [drawing 91] [drawing 92] [drawing 93]
The resulting photochromic laminates were evaluated by the below-mentioned methods. • (1) Photochromic property • [1] Maximum absorption wavelength (λmax): This is the maximum absorption wavelength after color development determined by a spectrophotometer manufactured by Otsuka Electronics Co., Ltd. (instantaneous multichannel photo detector MCPD3000) and was used as an index of a color tone upon color development. • [2] Color developing density at 23°C (A23): This is a difference between an absorbance {ε(240)} after irradiation with light at 23°C for 240 seconds and an absorbance ε(0) when not irradiated with light at the maximum absorption wavelength and was used as an index of a color developing density. The higher this value is, the better a photochromic property is. • [3] Color fading half-life at 23°C [τ1/2 (sec).)]: This is a period of time taken by an absorbance at the maximum absorption wavelength of a sample to decrease to 1/2 of {ε(240)-ε(0)} when irradiation is stopped after irradiation with light at 23°C for 240 seconds, and was used as an index of a color fading rate. The shorter this period of time is, the faster the color fading rate is. • [4] […]

| SMILES | Dissolution for 15 min [1] | Dissolution for 30 min [1] | Dissolution for 45 min [1] | Dissolution for 1 hour [1] | Residual ratio [2] | Color developing density at 23°C [2] | Color fading half-life at 23°C [2] |
| --- | --- | --- | --- | --- | --- | --- | --- |
| CCC(C)C1(CC)c2cc(OC)ccc2-c2c1c1c(c3cc(OC)ccc23)OC(c2ccc(OC)cc2)(c2ccc(N3CCOCC3)cc2)C=C1 (stereo not drawn) [Formula (3-2)] | 3 | 1 | 1 | 1 | – | – | – |
| CCCCCC1(CCCC)c2ccccc2-c2c1c1c(c3cc(OC)c(N4CCCc5ccccc54)cc23)OC(c2ccc(OC)cc2)(c2ccc(OCCC)cc2)C=C1 (stereo not drawn) [Formula (16-1)] | – | – | – | – | 59% | 1.29 - | – |
| CCCCC1(C(C)CC)c2ccccc2-c2c1c1c(c3cc(OC)c(N4CCOCC4)cc23)OC(c2ccc(OC)cc2)(c2ccc(OC)cc2)C=C1 (stereo not drawn) [Formula (20-1)] | 3 | 2 | 1 | 1 | 48% and 44% | – | – |
| CCCOc1ccc(C2(c3ccc(OC)cc3)C=Cc3c4c(c5cc(OC)c(OC)cc5c3O2)-c2ccc(Sc3cccc(C(F)(F)F)c3)cc2C4(CC)CCC)cc1 (stereo not drawn) [Formula (72-3)] | – | – | – | – | 57% | – | – |
| CCCOc1ccc(C2(c3ccc(OC)cc3)C=Cc3c4c(c5cc(C)c(OC)cc5c3O2)-c2ccc(N3CCOc5ccccc53)cc2C4(C)CC)cc1 (stereo not drawn) [Formula (75-2)] | – | – | – | – | 64% | – | 2.33 min |
| CCCCC1(CC)c2ccccc2-c2c1c1c(c3cc(OC)c(-c4ccccc4N4CCOCC4)cc23)OC(c2ccc(OC)cc2)(c2ccc(OC)cc2)C=C1 (stereo not drawn) [Formula (81-2)] | – | – | – | – | – | – | 1.67 min |
| CCCCCCC1(CCCC)c2cc(OC)ccc2-c2c1c1c(c3cc(OC)c(Sc4c(C)cccc4C)cc23)OC(c2ccc(OC)cc2)(c2ccc(N3CCOCC3)cc2)C=C1 (stereo not drawn) [Formula (85-1)] | 3 | 2 | 1 | 1 | – | – | – |
| CCCC1(CC)c2cc(Sc3c(C)cccc3C)ccc2-c2c1c1c(c3cc(OC)ccc23)OC(c2ccc(OC)cc2)(c2ccc(N(C)c3ccccc3)cc2)C=C1 (stereo not drawn) [Formula (88-1)] | – | – | – | – | 68% | – | 0.717 min |
| COc1ccc(C2(c3ccc(N4CCOCC4)cc3)C=Cc3c4c(c5ccc(OC)cc5c3O2)-c2ccc(OC)cc2C42CC(C)(C)CC(C)(C)C2)cc1 (stereo not drawn) [Formula (E), reference compound] | 4 | 3 | 3 | 2 | – | – | – |
| CCC1(CC)c2ccccc2-c2c1c1c(c3cc(OC)c(N(C)c4ccccc4)cc23)OC(c2ccc(OC)cc2)(c2ccc(OC)cc2)C=C1 [Formula (F), reference compound] | 4 | 3 | 3 | 2 | – | – | – |
| COc1ccc(C2(c3ccc(N4CCOCC4)cc3)C=Cc3c4c(c5cc(-c6ccc(N7CCOCC7)cc6)c(OC)cc5c3O2)-c2ccc(C)cc2C4(C)C)cc1 (stereo not drawn) [Formula (G), reference compound] | 4 | 3 | 3 | 2 | – | – | – |
| COc1ccc(C2(c3ccc(OC)cc3)C=Cc3c4c(c5ccc(OC)cc5c3O2)-c2ccc(OC(F)(F)F)cc2C4(C)C)cc1 [Formula (H), reference compound] | 4 | 3 | 3 | 2 | – | – | – |
| CCCOc1ccc(C2(c3ccc(OC)cc3)C=Cc3c4c(c5cc(OC)c(OC)cc5c3O2)-c2ccc(N(C)c3ccccc3)cc2C4(C)C)cc1 (stereo not drawn) [Formula (I), reference compound] | 4 | 4 | 3 | 3 | – | – | – |
| CCC1(CC)CCC2(CC1)c1cc(OC)ccc1-c1c2c2c(c3cc(OC)c(Sc4c(C)cccc4C)cc13)OC(c1ccc(OC)cc1)(c1ccc(N3CCOCC3)cc1)C=C2 (stereo not drawn) [Formula (J), reference compound] | 4 | 3 | 3 | 2 | – | – | – |
| COc1ccc(C2(c3ccc(N4CCOCC4)cc3)C=Cc3c4c(c5cc(Sc6c(C)cccc6C)c(OC)cc5c3O2)-c2ccc(OC)cc2C4(C)C)cc1 (stereo not drawn) [Formula (K), reference compound] | 4 | 4 | 3 | 3 | – | – | – |

More lines, now with the values ahead:

| Dissolution for 15 min [1] | Dissolution for 30 min [1] | Dissolution for 45 min [1] | Dissolution for 1 hour [1] | Residual ratio [2] | Color developing density at 23°C [2] | Color fading half-life at 23°C [2] | SMILES |
| --- | --- | --- | --- | --- | --- | --- | --- |
| – | – | – | – | 68% | – | 1.17 min | CCCCC1(CC)c2ccccc2-c2c1c1c(c3cc(OC)c(-c4ccc(N(c5ccccc5)c5ccccc5)cc4)cc23)OC(c2ccc(N(C)c3ccccc3)cc2)(c2ccc(OCCC)c(F)c2)C=C1 (stereo not drawn) [Formula (76-6)] |
| 3 | 2 | 1 | 1 | – | – | – | CCCCC1(CC)c2cc(N(C)c3ccccc3)ccc2-c2c1c1c(c3cc(OC)c(OC)cc23)OC(c2ccc(OC)cc2)(c2ccc(OCCC)cc2)C=C1 (stereo not drawn) [Formula (82-1)] |
| – | – | – | – | 74% | 1.25 - | 1.53 min | CCCC1(CC)c2ccccc2-c2c1c1c(c3cc(OC)c(N(C)c4ccccc4)cc23)OC(c2ccc(OC)cc2)(c2ccc(N(c3ccccc3)c3ccccc3)cc2)C=C1 (stereo not drawn) [Formula (83-2)] |
| – | – | – | – | 62% | – | 2 min | CCCC1(CC)c2cc(C)ccc2-c2c1c1c(c3cc(OC)c(-c4ccc(N5CCOCC5)cc4)cc23)OC(c2ccc(C)cc2)(c2ccc(N(C)c3ccccc3)cc2)C=C1 (stereo not drawn) [Formula (84-1)] |
| – | – | – | – | 58% | – | – | CCCOc1ccc(C2(c3ccc(N(C)c4ccccc4)cc3)C=Cc3c4c(c5cc(-c6ccc(OC)cc6OC)c(OC)cc5c3O2)-c2ccccc2C4(C)CC)cc1F (stereo not drawn) [Formula (86-1)] |
| 4 | 2 | 1 | 1 | – | – | – | CCCC1(C)c2ccccc2-c2c1c1c(c3cc(OC)c(-c4c(OC)cc(OC)cc4OC)cc23)OC(c2ccc(OC)cc2)(c2ccc(N(c3ccccc3)c3ccccc3)cc2)C=C1 (stereo not drawn) [Formula (89-1)] |
| 4 | 3 | 2 | 1 | – | – | – | COc1ccc(C2(c3ccc(N(c4ccccc4)c4ccccc4)cc3)C=Cc3c4c(c5cc(-c6c(OC)cc(OC)cc6OC)c(OC)cc5c3O2)-c2ccccc2C4(C)C)cc1 (stereo not drawn) [Formula (L), reference compound] |
